Patent US20080234262A1 (Wyeth, priority 2007, published 2008)
Read-outs that look alike come from different tables or passages of the source.

Experiments:
breast line MDA468 = assay: In vitro cell culture growth assay (MTS), MDA468; format: cell-based, human; conditions: Homo sapiens, 72 h, MDA468 cells, three days after drug treatment
Procedure, shortened: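 MDA468 or LNCap cells received inhibitors one day after plating and were grown for three days. Viable cell density read by MTS conversion, absorbance 490 nm, expressed as percent of control growth versus vehicle-treated cells on the same plate.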

PI3K = PI3K (Homo sapiens, UniProt P42336); assay: Fluorescence polarization assay for PI3K; format: biochemical;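 also: PI3K kinase reaction on PIP2 with ATP, 30-60 min, product sensed by GST-GRP with red probe in fluorescence polarization (mP), controls without enzyme and at zero time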
Chain of PI3K (P42336 whole entry): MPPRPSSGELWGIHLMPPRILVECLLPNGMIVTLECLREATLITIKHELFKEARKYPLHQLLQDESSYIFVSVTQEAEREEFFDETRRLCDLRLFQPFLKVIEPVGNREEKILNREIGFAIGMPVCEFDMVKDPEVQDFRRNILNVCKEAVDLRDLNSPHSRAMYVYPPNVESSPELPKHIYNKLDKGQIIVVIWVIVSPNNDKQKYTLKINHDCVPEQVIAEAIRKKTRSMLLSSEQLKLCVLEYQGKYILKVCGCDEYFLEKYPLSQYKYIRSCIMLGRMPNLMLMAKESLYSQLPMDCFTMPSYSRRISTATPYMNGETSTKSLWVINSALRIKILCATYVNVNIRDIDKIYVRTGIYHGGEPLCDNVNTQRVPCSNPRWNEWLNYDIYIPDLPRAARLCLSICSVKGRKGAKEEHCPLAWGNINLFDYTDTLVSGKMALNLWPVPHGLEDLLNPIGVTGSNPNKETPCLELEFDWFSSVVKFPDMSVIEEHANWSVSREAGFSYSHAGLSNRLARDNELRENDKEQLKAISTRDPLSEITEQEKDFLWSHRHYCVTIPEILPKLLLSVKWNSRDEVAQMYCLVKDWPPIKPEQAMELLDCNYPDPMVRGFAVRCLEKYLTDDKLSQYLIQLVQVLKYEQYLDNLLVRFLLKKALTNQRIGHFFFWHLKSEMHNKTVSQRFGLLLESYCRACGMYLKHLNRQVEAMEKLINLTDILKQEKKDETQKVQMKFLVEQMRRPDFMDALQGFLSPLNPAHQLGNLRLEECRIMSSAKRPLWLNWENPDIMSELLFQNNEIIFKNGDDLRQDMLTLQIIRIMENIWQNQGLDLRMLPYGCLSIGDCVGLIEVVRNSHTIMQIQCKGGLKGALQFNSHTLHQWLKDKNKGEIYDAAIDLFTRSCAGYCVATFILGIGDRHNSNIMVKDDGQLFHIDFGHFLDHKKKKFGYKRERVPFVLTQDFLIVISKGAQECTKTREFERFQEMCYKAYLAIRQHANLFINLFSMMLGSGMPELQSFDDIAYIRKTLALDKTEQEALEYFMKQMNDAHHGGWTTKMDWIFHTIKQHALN
Chain of PI3K (P27986 whole entry partner): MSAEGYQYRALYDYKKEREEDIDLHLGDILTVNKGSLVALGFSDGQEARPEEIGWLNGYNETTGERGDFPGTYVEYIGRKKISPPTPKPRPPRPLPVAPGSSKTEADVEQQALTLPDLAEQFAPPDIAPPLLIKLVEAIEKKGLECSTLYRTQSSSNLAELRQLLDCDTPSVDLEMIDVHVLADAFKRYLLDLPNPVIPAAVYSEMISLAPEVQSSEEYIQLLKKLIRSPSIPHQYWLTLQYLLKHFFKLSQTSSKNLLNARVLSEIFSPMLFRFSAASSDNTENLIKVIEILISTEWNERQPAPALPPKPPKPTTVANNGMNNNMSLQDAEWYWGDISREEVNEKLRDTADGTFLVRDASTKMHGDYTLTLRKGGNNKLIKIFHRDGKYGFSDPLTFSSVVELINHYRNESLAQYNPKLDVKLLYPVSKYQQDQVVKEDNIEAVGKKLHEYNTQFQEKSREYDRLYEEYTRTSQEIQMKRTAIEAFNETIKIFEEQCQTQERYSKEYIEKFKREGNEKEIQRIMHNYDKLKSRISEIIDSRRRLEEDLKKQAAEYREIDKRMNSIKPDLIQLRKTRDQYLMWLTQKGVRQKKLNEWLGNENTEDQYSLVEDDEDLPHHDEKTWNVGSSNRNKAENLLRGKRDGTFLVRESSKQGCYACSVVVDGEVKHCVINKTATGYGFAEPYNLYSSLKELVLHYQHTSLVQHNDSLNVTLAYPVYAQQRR

prostate line LNCap = assay: In vitro cell culture growth assay (MTS), LNCap; format: cell-based, human; conditions: Homo sapiens, 72 h, LNCap cells, three days after drug treatment

SMILES | IC50 (PI3K; PI3Kα, read-out: PI3Kα IC50) | IC50 (prostate line LNCap; LNCaP) | IC50 (breast line MDA468) | IC50 (PI3K; PI3Kα IC50, PI3Kα) | IC50 (prostate line LNCap)
CNC(=O)Nc1ccc(-c2nc(N3CCOCC3)c3cnn(C4CCN(C(=O)Oc5ccccc5)CC4)c3n2)cc1 [Compound 755, phenyl 4-(6-{4-[(methylcarbamoyl)amino]phenyl}-4-morpholin-4-yl-1H-pyrazolo[3,4-d]pyrimidin-1-yl)piperidine-1-carboxylate] |  |  | 160 nM | 16 nM | 60 nM
C/C=C/C(=O)N1CCC(n2ncc3c(N4CCOCC4)nc(-c4ccc(NC(=O)NC)cc4)nc32)CC1 [Compound 756, 1-[4-(1-{1-[(2E)-but-2-enoyl]piperidin-4-yl}-4-morpholin-4-yl-1H-pyrazolo[3,4-d]pyrimidin-6-yl)phenyl]-3-methylurea] | 174 nM | 500 nM | 500 nM |  | 
CNC(=O)Nc1ccc(-c2nc(N3CCOCC3)c3cnn(C4CCN(C(=O)CC(=O)OC)CC4)c3n2)cc1 [Compound 757, methyl 3-[4-(6-{4-[(methylcarbamoyl)amino]phenyl}-4-morpholin-4-yl-1H-pyrazolo[3,4-d]pyrimidin-1-yl)piperidin-1-yl]-3-oxopropanoate] | 124 nM | 2000 nM | 1100 nM |  | 
C=CC(=O)N1CCC(n2ncc3c(N4CCOCC4)nc(-c4ccc(NC(=O)NC)cc4)nc32)CC1 [Compound 758, 1-{4-[1-(1-acryloylpiperidin-4-yl)-4-morpholin-4-yl-1H-pyrazolo[3,4-d]pyrimidin-6-yl]phenyl}-3-methylurea] | 98 nM | 370 nM | 300 nM |  | 
CNC(=O)Nc1ccc(-c2nc(N3CCOCC3)c3cnn(C4CCN(C(=O)C(F)(F)F)CC4)c3n2)cc1 [Compound 763, 1-methyl-3-(4-{4-morpholin-4-yl-1-[1-(trifluoroacetyl)piperidin-4-yl]-1H-pyrazolo[3,4-d]pyrimidin-6-yl}phenyl)urea] | 154 nM | 270 nM | 500 nM |  | 
CCNC(=O)Nc1ccc(-c2nc(N3CCOCC3)c3cnn(C4CCN(C(=O)OC(C)(C)C)CC4)c3n2)cc1 [Compound 764, tert-butyl 4-(6-{4-[(ethylcarbamoyl)amino]phenyl}-4-morpholin-4-yl-1H-pyrazolo[3,4-d]pyrimidin-1-yl)piperidine-1-carboxylate] | 738 nM | 115 nM | 370 nM |  | 
CC(C)(C)OC(=O)N1CCC(n2ncc3c(N4CCOCC4)nc(-c4ccc(NC(=O)NCCO)cc4)nc32)CC1 [Compound 766, tert-butyl 4-[6-(4-{[(2-hydroxyethyl)carbamoyl]amino}phenyl)-4-morpholin-4-yl-1H-pyrazolo[3,4-d]pyrimidin-1-yl]piperidine-1-carboxylate] | 364 nM | 180 nM | 410 nM |  | 
CC(C)(C)OC(=O)N1CCC(n2ncc3c(N4CCOCC4)nc(-c4ccc(NC(=O)Nc5ccccn5)cc4)nc32)CC1 [Compound 769, tert-butyl 4-(4-morpholin-4-yl-6-{4-[(pyridin-2-ylcarbamoyl)amino]phenyl}-1H-pyrazolo[3,4-d]pyrimidin-1-yl)piperidine-1-carboxylate] | 2190 nM | 3500 nM | 7000 nM |  | 
COC(=O)Nc1ccc(-c2nc(N3CCOCC3)c3cnn(C4CCN(C(=O)OC(C)(C)C)CC4)c3n2)cc1 [Compound 772, tert-butyl 4-(6-{4-[(methoxycarbonyl)amino]phenyl}-4-morpholin-4-yl-1H-pyrazolo[3,4-d]pyrimidin-1-yl)piperidine-1-carboxylate] | 5030 nM | 1300 nM | 5500 nM |  | 
CCNC(=O)Nc1ccc(-c2nc(N3CCOCC3)c3cnn(C4CCNCC4)c3n2)cc1 [Compound 773] | 306 nM | 620 nM | 390 nM |  | 
O=C(NCCF)Nc1ccc(-c2nc(N3CCOCC3)c3cnn(C4CCNCC4)c3n2)cc1 [Compound 774, 1-(2-fluoroethyl)-3-[4-(4-morpholin-4-yl-1-piperidin-4-yl-1H-pyrazolo[3,4-d]pyrimidin-6-yl)phenyl]urea] | 436 nM | 2300 nM | 1050 nM |  | 
O=C(NCCO)Nc1ccc(-c2nc(N3CCOCC3)c3cnn(C4CCNCC4)c3n2)cc1 [Compound 775, 1-(2-hydroxyethyl)-3-[4-(4-morpholin-4-yl-1-piperidin-4-yl-1H-pyrazolo[3,4-d]pyrimidin-6-yl)phenyl]urea] | 170 nM | 26000 nM | 12000 nM |  | 
O=C(Nc1ccc(-c2nc(N3CCOCC3)c3cnn(C4CCNCC4)c3n2)cc1)NC1CC1 [Compound 776, 1-cyclopropyl-3-[4-(4-morpholin-4-yl-1-piperidin-4-yl-1H-pyrazolo[3,4-d]pyrimidin-6-yl)phenyl]urea] | 442 nM | 1100 nM | 1100 nM |  | 
O=C(Nc1ccc(-c2nc(N3CCOCC3)c3cnn(C4CCNCC4)c3n2)cc1)Nc1ccccn1 [Compound 778, 1-[4-(4-morpholin-4-yl-1-piperidin-4-yl-1H-pyrazolo[3,4-d]pyrimidin-6-yl)phenyl]-3-pyridin-2-ylurea] | 154 nM | 1300 nM | 1600 nM |  | 
COC(=O)Nc1ccc(-c2nc(N3CCOCC3)c3cnn(C4CCN(CC(F)(F)F)CC4)c3n2)cc1 [Compound 781, methyl (4-{4-morpholin-4-yl-1-[1-(2,2,2-trifluoroethyl)piperidin-4-yl]-1H-pyrazolo[3,4-d]pyrimidin-6-yl}phenyl)carbamate] | 1740 nM | 1800 nM | 7900 nM |  | 
CCNC(=O)Nc1ccc(-c2nc(N3CCOCC3)c3cnn(C4CCN(CC(F)(F)F)CC4)c3n2)cc1 [Compound 782, 1-ethyl-3-(4-{4-morpholin-4-yl-1-[1-(2,2,2-trifluoroethyl)piperidin-4-yl]-1H-pyrazolo[3,4-d]pyrimidin-6-yl}phenyl)urea] | 766 nM | 60 nM | 300 nM |  | 

Now from value to compound, other results behind:

IC50 (PI3K; PI3Kα, read-out: PI3Kα IC50) | IC50 (prostate line LNCap; LNCaP) | SMILES | IC50 (breast line MDA468) | IC50 (PI3K; PI3Kα IC50, PI3Kα) | IC50 (prostate line LNCap)
78 nM | 400 nM | CNC(=O)Nc1ccc(-c2nc(N3CCOCC3)c3cnn(C4CCN(S(C)(=O)=O)CC4)c3n2)cc1 [Compound 759, 1-methyl-3-(4-{1-[1-(methylsulfonyl)piperidin-4-yl]-4-morpholin-4-yl-1H-pyrazolo[3,4-d]pyrimidin-6-yl}phenyl)urea] | 480 nM |  | 
42 nM | 170 nM | CNC(=O)Nc1ccc(-c2nc(N3CCOCC3)c3cnn(C4CCN(C(=S)NC)CC4)c3n2)cc1 [Compound 760, N-methyl-4-(6-{4-[(methylcarbamoyl)amino]phenyl}-4-morpholin-4-yl-1H-pyrazolo[3,4-d]pyrimidin-1-yl)piperidine-1-carbothioamide] | 50 nM |  | 
72 nM | 50 nM | CNC(=O)Nc1ccc(-c2nc(N3CCOCC3)c3cnn(C4CCN(C(=O)SC)CC4)c3n2)cc1 [Compound 761, S-methyl 4-(6-{4-[(methylcarbamoyl)amino]phenyl}-4-morpholin-4-yl-1H-pyrazolo[3,4-d]pyrimidin-1-yl)piperidine-1-carbothioate] | 120 nM |  | 
87 nM | 50 nM | CCSC(=O)N1CCC(n2ncc3c(N4CCOCC4)nc(-c4ccc(NC(=O)NC)cc4)nc32)CC1 [Compound 762, S-ethyl 4-(6-{4-[(methylcarbamoyl)amino]phenyl}-4-morpholin-4-yl-1H-pyrazolo[3,4-d]pyrimidin-1-yl)piperidine-1-carbothioate] | 170 nM |  | 
74 nM | 205 nM | CC(C)(C)OC(=O)N1CCC(n2ncc3c(N4CCOCC4)nc(-c4ccc(NC(=O)Nc5ccccc5)cc4)nc32)CC1 [Compound 768, tert-butyl 4-(6-{4-[(anilinocarbonyl)amino]phenyl}-4-morpholin-4-yl-1H-pyrazolo[3,4-d]pyrimidin-1-yl)piperidine-1-carboxylate] | 710 nM |  | 
56 nM | 105 nM | CC(C)(C)OC(=O)N1CCC(n2ncc3c(N4CCOCC4)nc(-c4ccc(NC(=O)Nc5cccnc5)cc4)nc32)CC1 [Compound 770, tert-butyl 4-(4-morpholin-4-yl-6-{4-[(pyridin-3-ylcarbamoyl)amino]phenyl}-1H-pyrazolo[3,4-d]pyrimidin-1-yl)piperidine-1-carboxylate] | 260 nM |  | 
59 nM | 70 nM | CC(C)(C)OC(=O)N1CCC(n2ncc3c(N4CCOCC4)nc(-c4ccc(NC(=O)Nc5ccncc5)cc4)nc32)CC1 [Compound 771, tert-butyl 4-(4-morpholin-4-yl-6-{4-[(pyridin-4-ylcarbamoyl)amino]phenyl}-1H-pyrazolo[3,4-d]pyrimidin-1-yl)piperidine-1-carboxylate] | 190 nM |  | 
19 nM | 130 nM | O=C(Nc1ccccc1)Nc1ccc(-c2nc(N3CCOCC3)c3cnn(C4CCNCC4)c3n2)cc1 [Compound 777, 1-[4-(4-morpholin-4-yl-1-piperidin-4-yl-1H-pyrazolo[3,4-d]pyrimidin-6-yl)phenyl]-3-phenylurea] | 140 nM |  | 
26 nM | 2800 nM | O=C(Nc1ccc(-c2nc(N3CCOCC3)c3cnn(C4CCNCC4)c3n2)cc1)Nc1cccnc1 [Compound 779, 1-[4-(4-morpholin-4-yl-1-piperidin-4-yl-1H-pyrazolo[3,4-d]pyrimidin-6-yl)phenyl]-3-pyridin-3-ylurea] | 900 nM |  | 
16 nM | 2200 nM | O=C(Nc1ccncc1)Nc1ccc(-c2nc(N3CCOCC3)c3cnn(C4CCNCC4)c3n2)cc1 [Compound 780, 1-[4-(4-morpholin-4-yl-1-piperidin-4-yl-1H-pyrazolo[3,4-d]pyrimidin-6-yl)phenyl]-3-pyridin-4-ylurea] | 1500 nM |  | 
